Experimental data: US8952024B2, “Herbicidal pyrimidone derivatives” (E I du Pont de Nemours and Company, priority 2009, dated 2015)

How the values were obtained:
Assay in all cases: Test B pre-/postemergence plant response
Format in all cases: in vivo
[1] = test system: cocklebur (Xanthium strumarium); conditions: for Plant response rating, Cocklebur: Postemergence
Outline: (§1)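 Visually scored on a 0 to 100 scale after 13 to 15 days in greenhouse versus controls. Treatments were preemergence on seeded loam/sand soil and postemergence on 1- to 4-leaf plants.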

[2] = test system: Surinam grass (Brachiaria decumbens); conditions: for Plant response rating, Surinam Grass: Postemergence
Outline: as §1

[3] = test system: ragweed (common ragweed, Ambrosia elatior); conditions: for Plant response rating, Ragweed: Postemergence
Outline: as §1

[4] = test system: morningglory (Ipomoea coccinea); conditions: for Plant response rating, Morningglory: Postemergence
Outline: as §1

[5] = test system: downy bromegrass (Bromus tectorum); conditions: for Plant response rating, Bromegrass, Downy: Postemergence
Outline: as §1

[6] = test system: bermudagrass (Cynodon dactylon); conditions: for Plant response rating, Bermudagrass: Postemergence
Outline: as §1

[7] = test system: wild oat (Avena fatua); conditions: for Plant response rating, Oat, Wild: Postemergence
Outline: as §1

[8] = test system: large crabgrass (Digitaria sanguinalis); conditions: for Plant response rating, Crabgrass, Large: Postemergence
Outline: as §1

[9] = test system: wheat (Triticum aestivum); conditions: for Plant response rating, Wheat: Postemergence
Outline: as §1

[10] = test system: kochia (Kochia scoparia); conditions: for Plant response rating, Kochia: Postemergence
Outline: as §1

[11] = test system: blackgrass (Alopecurus myosuroides); conditions: for Plant response rating, Blackgrass: Postemergence
Outline: as §1

[12] = test system: Italian ryegrass (Lolium multiflorum); conditions: for Plant response rating, Ryegrass, Italian: Postemergence
Outline: as §1

[13] = test system: woolly cupgrass (Eriochloa villosa); conditions: for Plant response rating, Cupgrass, Woolly: Postemergence
Outline: as §1

[14] = 62 g ai/ha, postemergence, 0 is no effect, 100 is complete control, 13 to 15 days
[15] = 31 g ai/ha, 0 to 100 scale (0 no effect, 100 complete control)
[16] = 125 g ai/ha, scale 0 to 100 (0 no effect, 100 complete control)
[17] = 250 g ai/ha, scale 0 to 100 (0 no effect, 100 complete control), 13 to 15 days

Structure (SMILES): COCCCn1c(-c2cccc(Br)c2)ncc(C(=O)C2=C(O)CCCC2=O)c1=O [Compound 140]
- Cocklebur plant response rating (0 to 100 scale) [1, 14]: 15
- Plant response rating, Cocklebur [1, 15]: 0
- Plant response rating, Cocklebur [1, 16]: 65
- Plant response rating, Cocklebur [1, 17]: 95
- Surinam Grass plant response rating (0 to 100 scale) [2, 14]: 50
- Plant response rating, Surinam Grass [2, 15]: 50
- Plant response rating, Surinam Grass [2, 16]: 55
- Plant response rating, Surinam Grass [2, 17]: 65
- Ragweed plant response rating (0 to 100 scale) [3, 14]: 45
- Plant response rating, Ragweed [3, 15]: 25
- Plant response rating, Ragweed [3, 16]: 65
- Plant response rating, Ragweed [3, 17]: 75
- Morningglory plant response rating (0 to 100 scale) [4, 14]: 60
- Plant response rating, Morningglory [4, 15]: 0
- Plant response rating, Morningglory [4, 16]: 65
- Plant response rating, Morningglory [4, 17]: 65
- Bromegrass, Downy plant response rating (0 to 100 scale) [5, 14]: 5
- Plant response rating, Bromegrass, Downy [5, 15]: 0
- Plant response rating, Bromegrass, Downy [5, 16]: 5
- Plant response rating, Bromegrass, Downy [5, 17]: 20
- Bermudagrass plant response rating (0 to 100 scale) [6, 14]: 75
- Plant response rating, Bermudagrass [6, 15]: 60
- Plant response rating, Bermudagrass [6, 16]: 85
- Plant response rating, Bermudagrass [6, 17]: 90
- Oat, Wild plant response rating (0 to 100 scale) [7, 14]: 5
- Plant response rating, Oat, Wild [7, 15]: 0
- Plant response rating, Oat, Wild [7, 16]: 10
- Plant response rating, Oat, Wild [7, 17]: 40
- Crabgrass, Large plant response rating (0 to 100 scale) [8, 14]: 65
- Plant response rating, Crabgrass, Large [8, 15]: 50
- Plant response rating, Crabgrass, Large [8, 16]: 80
- Plant response rating, Crabgrass, Large [8, 17]: 90
- Wheat plant response rating (0 to 100 scale) [9, 14]: 5
- Plant response rating, Wheat [9, 15]: 5
- Plant response rating, Wheat [9, 16]: 10
- Plant response rating, Wheat [9, 17]: 15
- Kochia plant response rating (0 to 100 scale) [10, 14]: 10
- Plant response rating, Kochia [10, 15]: 0
- Plant response rating, Kochia [10, 16]: 10
- Plant response rating, Kochia [10, 17]: 35
- Blackgrass plant response rating (0 to 100 scale) [11, 14]: 0
- Plant response rating, Blackgrass [11, 15]: 0
- Plant response rating, Blackgrass [11, 16]: 5
- Plant response rating, Blackgrass [11, 17]: 5
- Ryegrass, Italian plant response rating (0 to 100 scale) [12, 14]: 0
- Plant response rating, Ryegrass, Italian [12, 15]: 0
- Plant response rating, Ryegrass, Italian [12, 16]: 0
- Plant response rating, Ryegrass, Italian [12, 17]: 5
- Cupgrass, Woolly plant response rating (0 to 100 scale) [13, 14]: 50
- Plant response rating, Cupgrass, Woolly [13, 15]: 50
- Plant response rating, Cupgrass, Woolly [13, 16]: 65
- Plant response rating, Cupgrass, Woolly [13, 17]: 65
